Blood glucose levels, weight gain and IC50 data for 25 compounds are collected here from patent publication US9433622B2, “Pyrimidine compounds useful in the treatment of diseases mediated by IKKE and/or TBK1 mechanisms” (DOMAINEX LIMITED, priority 2013, dated 2016).

Read-outs that look alike come from different tables or passages of the source.

For test [1] the following is noted: mice models of obesity; cited from earlier work.
The target in test [2] is TBK1 (Homo sapiens (Human), UniProt Q9UHD2). Description: Lanthascreen TR-FRET kinase inhibition assay, TBK1. Type of test: biochemical. To be noted: 20 μM ATP (apparent Km), 8 nM kinase, 2.5 h. In a few lines:
(§1)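 TR-FRET: terbium phosphospecific antibody detects phosphorylation of 400 nM fluorescein-IkBα peptide, 20 μM ATP, 20 °C, HEPES pH 7.5 with 3% DMSO. IKKε at 2 nM, 1 h reaction; TBK1 at 8 nM, 2.5 h reaction; started by kinase addition.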
(TR-FRET usually uses a lanthanide donor and a delayed reading to cut background.)

Test [3] has as its target IKKε (Homo sapiens (Human), UniProt Q14164). Description: Lanthascreen TR-FRET kinase inhibition assay, IKKε. The class given is biochemical. The method in brief: as §1
The mark [4] stands for this setting: 20 μM ATP (apparent Km), 2 nM kinase, 1 h.

Sequence of IKKε (Q14164 whole entry): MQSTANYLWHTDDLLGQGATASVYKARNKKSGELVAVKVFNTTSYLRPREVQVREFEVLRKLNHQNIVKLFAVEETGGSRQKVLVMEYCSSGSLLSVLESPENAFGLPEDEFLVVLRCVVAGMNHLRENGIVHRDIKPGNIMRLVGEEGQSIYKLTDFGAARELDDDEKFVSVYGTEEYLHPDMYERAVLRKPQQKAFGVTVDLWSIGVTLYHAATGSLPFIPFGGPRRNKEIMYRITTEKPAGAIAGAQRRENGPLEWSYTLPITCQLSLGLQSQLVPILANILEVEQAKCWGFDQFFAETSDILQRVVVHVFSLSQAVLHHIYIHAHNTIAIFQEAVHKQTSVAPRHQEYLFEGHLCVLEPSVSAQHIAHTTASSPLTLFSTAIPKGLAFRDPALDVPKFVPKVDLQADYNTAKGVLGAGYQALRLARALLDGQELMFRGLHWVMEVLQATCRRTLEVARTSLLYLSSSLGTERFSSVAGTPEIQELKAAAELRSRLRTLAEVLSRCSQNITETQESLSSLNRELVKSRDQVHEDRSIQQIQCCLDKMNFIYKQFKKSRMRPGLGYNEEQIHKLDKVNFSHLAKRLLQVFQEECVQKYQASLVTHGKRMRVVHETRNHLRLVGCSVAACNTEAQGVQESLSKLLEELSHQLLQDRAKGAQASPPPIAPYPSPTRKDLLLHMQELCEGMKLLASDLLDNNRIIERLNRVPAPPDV
Sequence of TBK1 (Q9UHD2 whole entry): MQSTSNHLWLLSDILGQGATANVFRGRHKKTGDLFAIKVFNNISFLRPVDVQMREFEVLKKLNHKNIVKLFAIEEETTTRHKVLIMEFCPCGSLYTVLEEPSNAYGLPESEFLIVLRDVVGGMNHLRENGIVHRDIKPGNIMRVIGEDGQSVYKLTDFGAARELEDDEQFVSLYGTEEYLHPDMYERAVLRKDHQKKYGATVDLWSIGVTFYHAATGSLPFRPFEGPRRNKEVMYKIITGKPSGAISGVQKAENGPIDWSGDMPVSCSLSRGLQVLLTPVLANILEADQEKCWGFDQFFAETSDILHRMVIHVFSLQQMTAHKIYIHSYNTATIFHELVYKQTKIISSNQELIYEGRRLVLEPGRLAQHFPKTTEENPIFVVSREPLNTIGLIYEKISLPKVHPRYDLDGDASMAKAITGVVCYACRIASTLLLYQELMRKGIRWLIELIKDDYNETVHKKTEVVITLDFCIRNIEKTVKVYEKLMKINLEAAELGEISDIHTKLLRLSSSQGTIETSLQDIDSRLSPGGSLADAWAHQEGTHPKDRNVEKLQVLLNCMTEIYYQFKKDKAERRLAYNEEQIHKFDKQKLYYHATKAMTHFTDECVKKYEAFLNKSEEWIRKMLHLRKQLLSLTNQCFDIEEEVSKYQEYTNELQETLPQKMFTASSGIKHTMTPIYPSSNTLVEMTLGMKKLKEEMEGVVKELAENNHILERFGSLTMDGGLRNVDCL

For `CC(C)c1ccc2oc3nc(N)c(C(=O)O)cc3c(=O)c2c1` [Amlexanox], in test [1], the blood glucose levels result is “lower blood glucose levels” and the weight gain result is recorded as “reduce weight gain”.

The IC50 is the concentration that gives 50% inhibition. `N#Cc1nc(-c2ccnc(Nc3ccc(CN4CCOCC4)nc3)n2)ccc1N1CC[C@H](F)C1` [DMX-143, 3-((S)-3-Fluoro-pyrrolidin-1-yl)-6-[2-(6-morpholin-4-ylmethyl-pyridin-3-ylamino)-pyrimidin-4-yl]-pyridine-2-carbonitrile]: the 50% inhibitory concentration (IC50) in test [2] and in test [3] (setting [4]) was below 15 nM throughout.

`N#Cc1nc(-c2ccnc(Nc3ccc(CN4CCOCC4)nc3)n2)ccc1N1CC[C@H](O)C1` [DMX-144, 3-((S)-3-Hydroxy-pyrrolidin-1-yl)-6-[2-(6-morpholin-4-ylmethyl-pyridin-3-ylamino)-pyrimidin-4-yl]-pyridine-2-carbonitrile]: the 50% inhibitory concentration (IC50) in test [2] and in test [3] (setting [4]) was below 30 nM in each case.

Turning to `N#Cc1nc(-c2ccnc(Nc3ccc(NC(=O)CN4CC[C@H](F)C4)nc3)n2)ccc1N1CC[C@H](F)C1` [DMX-145, N-(5-{4-[6-Cyano-5-((S)-3-fluoro-pyrrolidin-1-yl)-pyridin-2-yl]-pyrimidin-2-ylamino}-pyridin-2-yl)-2-((S)-3-fluoro-pyrrolidin-1-yl)-acetamide], the IC50 in test [2] and in test [3] (setting [4]) was below 30 nM each time.

For the compound `N#Cc1nc(-c2ccnc(Nc3ccc(NC(=O)CN4CC[C@H](F)C4)nc3)n2)ccc1N1CC[C@H](O)C1` [DMX-146, N-(5-{4-[6-Cyano-5-((S)-3-hydroxy-pyrrolidin-1-yl)-pyridin-2-yl]-pyrimidin-2 ylamino}-pyridin-2-yl)-2-((S)-3-fluoro-pyrrolidin-1-yl)-acetamide], the figures for the IC50 in test [2] and in test [3] (setting [4]) were below 30 nM and below 100 nM, respectively.

Turning to `N#Cc1nc(-c2ccnc(Nc3ccc(OCCN4CC[C@H](F)C4)nc3)n2)ccc1N1CC[C@H](F)C1` [DMX-147, 3-((S)-3-Fluoro-pyrrolidin-1-yl)-6-(2-{6-[2-((S)-3-fluoro-pyrrolidin-1-yl)-ethoxy]-pyridin-3-ylamino}-pyrimidin-4-yl)-pyridine-2-carbonitrile], the IC50 in test [2] is below 30 nM; in test [3] (setting [4]), below 100 nM.

`N#Cc1nc(-c2ccnc(Nc3ccc(OCCN4CC[C@H](F)C4)nc3)n2)ccc1N1CC[C@H](O)C1` [DMX-148, 6-(2-{6-[2-((S)-3-Fluoro-pyrrolidin-1-yl)-ethoxy]-pyridin-3-ylamino}-pyrimidin-4-yl)-3-((S)-3-hydroxy-pyrrolidin-1-yl)-pyridine-2-carbonitile]: the IC50 in test [2] and in test [3] (setting [4]) was below 100 nM each time.

For `C[C@H]1COCCN1Cc1ccc(Nc2nccc(-c3ccc(N4CC[C@H](F)C4)c(C#N)n3)n2)cn1` [DMX-149, 3-((S)-3-Fluoro-pyrrolidin-1-yl)-6-{2-[6-((S)-3-methyl-morpholin-4-ylmethyl)-pyridin-3-ylamino]-pyrimidin-4-yl}-pyridine-2-carbonitrile], the IC50 in test [2] and in test [3] was below 15 nM in each case.

Turning to `N#Cc1nc(-c2ccnc(Nc3ccc(CN4CC[C@H](F)C4)nc3)n2)ccc1N1CC[C@H](F)C1` [DMX-150, 3-((S)-3-Fluoro-pyrrolidin-1-yl)-6-{2-[6-((S)-3-fluoro-pyrrolidin-1-ylmethyl)-pyridin-3-ylamino]-pyrimidin-4-yl}-pyridine-2-carbonitrile], the IC50 in test [2] and in test [3] (setting [4]) was below 15 nM in each case.

For `Cc1nccn1Cc1ccc(Nc2nccc(-c3ccc(N4CC[C@H](F)C4)c(C#N)n3)n2)cn1` [DMX-151, 3-((S)-3-Fluoro-pyrrolidin-1-yl)-6-{2-[6-(2-methyl-imidazol-1-ylmethyl)-pyridin-3-ylamino]-pyrimidin-4-yl}-pyridine-2-carbonitrile], the IC50 in test [2] and in test [3] (setting [4]) was below 30 nM each time.

With `COCCN(C)Cc1ccc(Nc2nccc(-c3ccc(N4CC[C@H](F)C4)c(C#N)n3)n2)cn1` [DMX-152, 3-((S)-3-Fluoro-pyrrolidin-1-yl)-6-[2-(6-{[(2-methoxy-ethyl)-methyl-amino]-methyl}-pyridin-3-ylamino)-pyrimidin-4-yl]-pyridine-2-carbonitrile], the 50% inhibitory concentration (IC50) in test [2] and in test [3] (setting [4]) was below 30 nM throughout.

`N#Cc1nc(-c2nc(Nc3ccc(N4CCOCC4)cc3)ncc2F)ccc1N1CC[C@H](F)C1` [DMX-153, 6-[5-Fluoro-2-(4-morpholin-4-yl-phenylamino)-pyrimidin-4-yl]-3-((S)-3-fluoro-pyrrolidin-1-yl)-pyridine-2-carbonitrile]: the IC50 in test [2] and in test [3] (setting [4]) was below 15 nM in each case.

In the case of `COCCN(C)c1ccc(-c2ccnc(Nc3cnn(C)c3)n2)nc1C#N` [DMX-155], the IC50 in test [2] and in test [3] (setting [4]) was below 1000 nM throughout.

`N#Cc1nc(-c2ccnc(Nc3ccc(CN4CCNC(=O)C4)nc3)n2)ccc1N1CC[C@H](F)C1` [DMX-156, 3-((S)-3-Fluoro-pyrrolidin-1-yl)-6-{2-[6-(3-oxo-piperazin-1-ylmethyl)-pyridin-3-ylamino]-pyrimidin-4-yl}-pyridine-2-carbonitrile]: the IC50 in test [2] and in test [3] (setting [4]) was below 15 nM each time.

Turning to `COCCNCc1ccc(Nc2nccc(-c3ccc(N4CC[C@H](F)C4)c(C#N)n3)n2)cn1` [DMX-157, 3-((S)-3-Fluoro-pyrrolidin-1-yl)-6-(2-{6-[(2-methoxy-ethylamino)-methyl]-pyridin-3-ylamino}-pyrimidin-4-yl)-pyridine-2-carbonitrile], the IC50 was below 30 nM in test [2] and below 100 nM in test [3] (setting [4]).

Consider `N#Cc1cc(-c2ccnc(Nc3ccc(CN4CCOCC4)nc3)n2)cnc1N1CCC(CC(N)=O)C1` (centres unmarked) [DMX-158, 2-(1-{3-Cyano-5-[2-(6-morpholin-4-ylmethyl-pyridin-3-ylamino)-pyrimidin-4-yl]-pyridin-2-yl}-pyrrolidin-3-yl)-acetamide], for which the IC50 in test [2] and in test [3] (setting [4]) was below 100 nM throughout.

In the case of `CC1CN(c2ncc(-c3ccnc(Nc4ccc(CN5CCOCC5)nc4)n3)cc2C#N)CCO1` (centres unmarked) [DMX-159, 2-(2-Methyl-morpholin-4-yl)-5-[2-(6-morpholin-4-ylmethyl-pyridin-3-ylamino)-pyrimidin-4-yl]-nicotinonitrile], the IC50 in test [2] and in test [3] (setting [4]) was below 1000 nM each time.

Consider `COCC1CCN(c2ncc(-c3ccnc(Nc4ccc(CN5CCOCC5)nc4)n3)cc2C#N)C1` (centres unmarked) [DMX-160, 2-(3-Methoxymethyl-pyrrolidin-1-yl)-5-[2-(6-morpholin-4-ylmethyl-pyridin-3-ylamino)-pyrimidin-4-yl]-nicotinonitrile], for which the results for the IC50 in test [2] and in test [3] (setting [4]) were below 1000 nM and below 100 nM, respectively.

In the case of `N#Cc1cc(-c2ccnc(Nc3ccc(CN4CCOCC4)nc3)n2)cnc1N1CCC(OC(F)F)C1` (centres unmarked) [DMX-161, 2-(3-Difluoromethoxy-pyrrolidin-1-yl)-5-[2-(6-morpholin-4-ylmethyl-pyridin-3-ylamino)-pyrimidin-4-yl]-nicotinonitrile], the IC50 in test [2] is below 100 nM; in test [3] (setting [4]), below 30 nM.

Consider `N#Cc1cc(-c2ccnc(Nc3ccc(CN4CCOCC4)nc3)n2)cnc1N1CCC(CCC(N)=O)C1` (centres unmarked) [DMX-162, 3-(1-{3-Cyano-5-[2-(6-morpholin-4-ylmethyl-pyridin-3-ylamino)-pyrimidin-4-yl]-pyridin-2-yl}-pyrrolidin-3-yl)-propionamide], for which the results for the IC50 in test [2] and in test [3] (setting [4]) were below 100 nM and below 30 nM, respectively.

`CN(c1ncc(-c2ccnc(Nc3ccc(CN4CCOCC4)nc3)n2)cc1C#N)C1CCOC1` (centres unmarked) [DMX-163, 2-[Methyl-(tetrahydro-furan-3-yl)-amino]-5-[2-(6-morpholin-4-ylmethyl-pyridin-3-ylamino)-pyrimidin-4-yl]-nicotinonitrile]: the IC50 in test [2] and in test [3] (setting [4]) was below 100 nM each time.

As to `N#Cc1nc(-c2ccnc(Nc3ccc(CN4CCOCC4)nc3)n2)ccc1N1CCCOCC1` [DMX-164, 6-[2-(6-Morpholin-4-ylmethyl-pyridin-3-ylamino)-pyrimidin-4-yl]-3-[1,4]oxazepan-4-yl-pyridine-2-carbonitrile], the IC50 was below 100 nM in test [2] and below 30 nM in test [3] (setting [4]).

Consider `N#Cc1nc(-c2ccnc(Nc3ccc(CN4CCOCC4)nc3)n2)ccc1N1CCC2(COC2)C1` [DMX-165, 6-[2-(6-Morpholin-4-ylmethyl-pyridin-3-ylamino)-pyrimidin-4-yl]-3-(2-oxa-6-aza-spiro[3.4]oct-6-yl)-pyridine-2-carbonitrile], for which the IC50 in test [2] was below 30 nM; in test [3] (setting [4]) it was below 15 nM.

Turning to `N#Cc1nc(-c2ccnc(Nc3ccc(NC(=O)CN4CCOCC4)nc3)n2)ccc1N1CCCOCC1` [DMX-166, N-{5-[4-(6-Cyano-5-[1,4]oxazepan-4-yl-pyridin-2-yl)-pyrimidin-2-ylamino]-pyridin-2-yl)-2-morpholin-4-yl-acetamide], the half-maximal inhibitory concentration (IC50) in test [2] and in test [3] (setting [4]) was below 100 nM throughout.

Take `N#Cc1nc(-c2ccnc(Nc3ccc(NC(=O)CN4CCOCC4)nc3)n2)ccc1N1CCC2(COC2)C1` [DMX-167, N-(5-{4-[6-Cyano-5-(2-oxa-6-aza-spiro[3.4]oct-6-yl)-pyridin-2-yl]-pyrimidin-2-ylamino}-pyridin-2-yl)-2-morpholin-4-yl-acetamide]: the IC50 in test [2] was below 100 nM; in test [3] (setting [4]), below 30 nM.
